In patent US6127339A, “Peptide for binding thereto a low density lipoprotein” (Asahi Kasei Kogyo Kabushiki Kaisha, priority 1995, dated 2000):
No end group written: not given here.

Assays:
LDL [1] = assay: BIAcore affinity of immobilized peptide to LDL in HBS buffer; type: binding; conditions: 6-minute injection, based on the immobilized amount of RRWFW-CONH2 as standard
Source text: (§1) Further, the binding ability (affinity) of the adsorbent for an LDL can also be determined by using BIAcore (manufactured and sold by Pharmacia Biosensor AB, Sweden), in accordance with the instructions given in a manual attached to BIAcore. Specifically, the binding ability of the adsorbent for an LDL can also be determined by a method in which the peptide is immobilized on a sensor chip of the BIAcore, and a solution containing LDL, such as plasma, is flowed over the sensor chip.
Twenty-six different peptides and four different comparative peptides (which are all shown in Table 11; wherein for Example 11, Sample Nos. 1, 4 and 5-26 are SEQ ID NOS:35, 89 and 36-57, respectively, and wherein for Comparative Example 8, Sample Nos. 1, 2, 3 and 4 are SEQ ID NOS:86, 87, 90 and 88, respectively) were prepared in substantially the same manner as in Example 7. […]
The affinity of the peptide to the LDL contained in HBS buffer was measured using the above-mentioned BIAcore (provided with the sensor chip having the peptide immobilized thereon) as follows. […] However, since the amounts of the peptides immobilized on the sensor chip vary depending on the types of the peptides, the amount of a peptide of RRWFW-CONH2 immobilized on the sensor chip was taken as a standard amount and the affinities of various tested peptides were determined, based on the above standard amount.

LDL [2] = assay: BIAcore affinity of immobilized peptide to LDL in plasma; type: binding; conditions: plasma containing 1 mg/ml LDL versus LDL-free plasma; based on the immobilized amount of RRWFW-CONH2 as standard
Source text: as §1
Twenty-seven different peptides and four different comparative peptides (which are all shown in Table 12, wherein for Example 12, Sample Nos. 12-15 are SEQ ID NOS:12-15, respectively) were prepared in substantially the same manner as in Example 7. Each of the obtained peptides was individually dissolved in a 10 mM acetate buffer (pH: 5.5) to thereby obtain peptide solutions each having a peptide concentration of […]. […]
The affinity of the peptide to the LDL in plasma was measured using the above-mentioned BIAcore (provided with the sensor chip having the peptide immobilized thereon) as follows. […]

Row | Substance | Affinity to LDL (RU) (LDL [1]) | Affinity to LDL (RU) (LDL [2])
1 | DPSVY-CONH2 (DPSVY-NH2) | 310 RU | 250 RU
2 | EMEEV-CONH2 (EMEEV-NH2) | 730 RU | 270 RU
